Data published in US6642392B1 (priority 1997, dated 2003).
Where two headings read alike, the source gives them in different places.

What was measured:
Assay type in all cases: in vivo
[1] = test system: Eiysiphe graminis f. sp. tritici; test: Test A: wheat powdery mildew, preventive spray on wheat seedlings; conditions: for Test A disease control rating: wheat powdery mildew; for Test A disease control rating (100 = 100% disease control, 0 = no disease control): wheat seedlings sprayed to run-off, inoculated the following day, rating relative to controls, unmarked compounds (standard test rate)
Summary of the method: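 Compounds (3% acetone, 250 ppm Trem 014) sprayed to run-off on wheat seedlings, inoculated next day with spore dust. Incubated 7 days at 20° C before disease rating, 0–100% control relative to untreated controls.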

Puccinia recondita = test: Test B: wheat leaf rust, preventive spray on wheat seedlings; conditions: for Test B disease control rating: wheat leaf rust; for Test B disease control rating (100 = 100% disease control, 0 = no disease control): wheat seedlings sprayed to run-off, inoculated the following day, rating relative to controls, unmarked compounds (standard test rate)
Summary of the method: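 Wheat seedlings were sprayed to run-off with compound (3% acetone, 250 ppm Trem 014), then inoculated with P. recondita spores the next day. They were held 24 h saturated at 20 °C, then 6 days at 20 °C. Ratings are 0–100% disease control versus controls.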

Pyricularia oryzae = conditions: for Test C disease control rating: rice blast; for Test C disease control rating (100 = 100% disease control, 0 = no disease control): rice seedlings sprayed to run-off, inoculated the following day, rating relative to controls, unmarked compounds (standard test rate)
Phytophthora infestans = conditions: for Test D disease control rating: tomato late blight; for Test D disease control rating (100 = 100% disease control, 0 = no disease control): tomato seedlings sprayed to run-off, inoculated the following day, rating relative to controls, unmarked compounds (standard test rate)
Botrytis cinerea = test: Test E: gray mold, preventive spray on cucumber seedlings; conditions: for Test E disease control rating: gray mold on cucumber; for Test E disease control rating (100 = 100% disease control, 0 = no disease control): cucumber seedlings sprayed to run-off, inoculated the following day, rating relative to controls, unmarked compounds (standard test rate)
Summary of the method: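 Compounds in 3% acetone were suspended with 250 ppm Trem 014 surfactant and sprayed to run-off on cucumber seedlings. B. cinerea spores were inoculated next day, then 48 h saturated humidity at 20° C and 5 days at 20° C. Disease control rated 0–100% versus controls.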

[2] = 100 = 100% disease control, 0 = no control relative to controls, unmarked entries (standard test concentration)
[3] = 100 = 100% disease control, 0 = no control, unmarked entries (standard test concentration)

Compound	Test A disease control rating [1, 2] [%]	Test B disease control rating (Puccinia recondita; [3]) [%]	Test C disease control rating (Pyricularia oryzae; [3]) [%]	Test D disease control rating (Phytophthora infestans; [3]) [%]	Test E disease control rating (Botrytis cinerea; [3]) [%]	Test A disease control rating (100 = 100% disease control, 0 = no disease control) [1] [%]	Test B disease control rating (100 = 100% disease control, 0 = no disease control) (Puccinia recondita) [%]	Test C disease control rating (100 = 100% disease control, 0 = no disease control) (Pyricularia oryzae) [%]	Test D disease control rating (100 = 100% disease control, 0 = no disease control) (Phytophthora infestans) [%]	Test E disease control rating (100 = 100% disease control, 0 = no disease control) (Botrytis cinerea) [%]	other results
CC(COn1c(C#N)cc(Cl)c1Cl)NC(=O)C(C#N)C(C)(C)C (mixture of isomers) [compound 51]	71	0	53	68	0	–	–	–	–	–	–
CCC1(C(=O)NC(C)COc2cc(F)ccc2Br)C(C)C1(Cl)Cl (centres unmarked) [compound 125]	–	–	–	–	–	–	–	–	–	–	Test A disease control rating ([1]; tested at 40 ppm): 90%; Test B disease control rating (Puccinia recondita; tested at 40 ppm): 0%; Test C disease control rating (Pyricularia oryzae; tested at 40 ppm): 99%; Test D disease control rating (Phytophthora infestans; tested at 40 ppm): 0%; Test E disease control rating (Botrytis cinerea; tested at 40 ppm): 0%
CC(COc1ccc(Br)cc1F)NC(=O)C(C#N)C(C)(C)C (mixture of isomers) [compound 38]	0	28	53	0	22	–	–	–	–	–	–
CCC1(C(=O)NC(C)COc2ccc(F)cc2C#N)C(C)C1(Cl)Cl (mixture of isomers) [compound 129]	38	26	74	0	0	–	–	–	–	–	–
C=CCc1cccc(C#N)c1OCC(C)NC(=O)C(C#N)C(C)C(C)(C)C (mixture of isomers) [compound 275]	–	–	–	–	–	0	0	53	0	99	–
C=CCc1cccc(C)c1OCC(C)NC(=O)C1(CC)C(C)C1(Cl)Cl (centres unmarked) [compound 119]	31	0	32	0	0	–	–	–	–	–	–
C[C@H](COc1cc(F)c(Cl)cc1F)NC(=O)C(C#N)C(C)(C)C (single isomer, unassigned) [173a]	63	28	52	33	0	–	–	–	–	–	–
CCc1cccc(OCC(C)NC(=O)C2(CC)C(C)C2(Cl)Cl)c1 (centres unmarked) [compound 240]	–	–	–	–	–	63	0	94	96	0	–
CCc1ccccc1OCC(C)NC(=O)C1(CC)C(C)C1(Cl)Cl (centres unmarked) [97b]	–	–	–	–	–	–	–	–	–	–	Test A disease control rating ([1]; tested at 40 ppm): 71%; Test B disease control rating (Puccinia recondita; tested at 40 ppm): 0%; Test C disease control rating (Pyricularia oryzae; tested at 40 ppm): 53%; Test D disease control rating (Phytophthora infestans; tested at 40 ppm): 0%; Test E disease control rating (Botrytis cinerea; tested at 40 ppm): 0%
CCC1(C(=O)NC(C)COc2c(Cl)cccc2Cl)C(C)C1(Cl)Cl (centres unmarked) [compound 114]	–	–	–	–	–	–	–	–	–	–	Test A disease control rating ([1]; tested at 40 ppm): 83%; Test B disease control rating (Puccinia recondita; tested at 40 ppm): 0%; Test C disease control rating (Pyricularia oryzae; tested at 40 ppm): 0%; Test D disease control rating (Phytophthora infestans; tested at 40 ppm): 0%; Test E disease control rating (Botrytis cinerea; tested at 40 ppm): 0%
C=C(F)C(C)(C)C(C#N)C(=O)NC(C)COc1cc(F)ccc1F (mixture of isomers) [compound 217]	–	–	–	–	–	0	0	99	0	0	–
CC(COn1c(Cl)c(Cl)c(Cl)c1C#N)NC(=O)C(C#N)C(C)(C)C (mixture of isomers) [compound 52]	71	86	0	81	0	–	–	–	–	–	–
C=CC(C)(C)C(C#N)C(=O)NC(C)COc1cc(F)ccc1F (mixture of isomers) [compound 214]	0	0	100	23	0	–	–	–	–	–	–
CC(COc1cccc(F)c1)NC(=O)C(C#N)C(C)(C)C (single isomer, unassigned) [3b]	0	0	86	32	0	–	–	–	–	–	–
CCC1(C(=O)NC(C)COc2c(F)ccc(F)c2C#N)C(C)C1(Cl)Cl (mixture of isomers) [compound 258]	–	–	–	–	–	74	27	94	0	0	–
CCC1(C(=O)NC(C)COc2ccccc2C(F)(F)F)C(C)C1(Cl)Cl (mixture of isomers) [94a]	0	0	0	0	0	–	–	–	–	–	–
C[C@H](COc1ccccc1Br)NC(=O)C(C#N)C(C)(C)C (single isomer, unassigned) [8b]	37	0	100	89	47	–	–	–	–	–	–
CC(COc1cc(I)ccc1C#N)NC(=O)C(C#N)C(C)(C)C (mixture of isomers) [compound 46]	0	0	53	66	0	–	–	–	–	–	–
CCC(C#N)C(=O)NC(C)C(Oc1cc(F)ccc1C#N)c1ccccc1 (mixture of isomers) [compound 286]	–	–	–	–	–	76	0	99	0	0	–
CCCc1ccccc1OCC(C)NC(=O)C1(CC)C(C)C1(Cl)Cl (centres unmarked) [98b]	–	–	–	–	–	–	–	–	–	–	Test A disease control rating ([1]; tested at 40 ppm): 52%; Test B disease control rating (Puccinia recondita; tested at 40 ppm): 0%; Test C disease control rating (Pyricularia oryzae; tested at 40 ppm): 74%; Test D disease control rating (Phytophthora infestans; tested at 40 ppm): 0%; Test E disease control rating (Botrytis cinerea; tested at 40 ppm): 0%
C[C@H](COc1cc(F)ccc1F)NC(=O)C(C#N)C(C)(C)C=CF (single isomer, unassigned) [221a]	–	–	–	–	–	0	0	100	41	0	–
CCCC(C#N)C(=O)NC(C)C(Oc1ccccc1C#N)c1ccccc1 (mixture of isomers) [compound 288]	–	–	–	–	–	33	0	86	0	0	–
